The record followed here is US10233483B2, “Methods of targeted antibiotic susceptibility testing” (Qvella Corporation, priority 2013, dated 2019).

SMILES strings stand for the structures.

For one test, the system named is Klebsiella pneumoniae. Briefly: Antimicrobial sensitivity testing of bacteria in partially lysed then enriched whole blood, real-time RT-PCR of rRNA and tmRNA. The format is cell-based. The conditions noted are these: 8 ug/mL final concentration, 2 hours incubation at 37° C. after 2 hours pre-incubation, K. pneumoniae spiked whole blood enriched with TSB. On the procedure:
Unless any variation is specified, the following example pretreatment procedure which includes blood cell lysis step followed by 4 wash cycles was performed in experiments which required pretreatment of blood samples. 10 μL of Fluorinert™ was added to 2 mL siliconized microcentrifuge tubes (T3531, Sigma), followed by the addition of 500 μL of the blood cell lysis reagent. The blood cell lysis reagent consisted of 75 mg/mL saponin, 15 mg/mL SPS and 1% PPG. EDTA-treated human whole blood from healthy volunteers of 1 mL spiked with microbial cells was added to the tube containing the blood cell lysis reagent and the Fluorinert™, and mixed by inverting ten times and vortexing at low speeds for 10 sec. The final concentrations of the components in the mixture were 25 mg/mL saponin, 5 mg/mL SPS and 0.33% PPG. The tubes were centrifuged at 12,000 rpm for 1 min and 1.35 mL of the supernatant was removed, leaving 150 uL of the liquid supernatant, Fluorinert™ and the sedimented microbial I cells. The first wash cycles was performed by adding 1.35 mL of 0.8 mM phosphate buffer to the remaining liquid supernatant of 150 uL as described above, mixing by vortexing at low speed for 10 sec, centrifugation at 12,000 rpm for 1 min and removal of 1.35 mL of the supernatant, leaving 150 μL of the liquid supernatant, the Fluorinert™ and the sedimented microbial. […]

The subject of the next test is E. coli. The test is described as follows: DnaK mRNA level after heat-shock induction in bacteria exposed to antibiotic, real-time RT-PCR. The conditions noted are these: 4 or 8 ug/mL, 120 min at 37° C. in LB broth, heat-shock 42° C. 3 min before E-lysis. The format is cell-based, Escherichia coli. How it is done:
Unless any variation was specified, RT-PCR reaction of 5 μL volume was prepared by mixing 1 μL of sample, 1 μL of Kapa 2G Robust Hotstart 5× buffer (KK5517, KAPA Biosystems), 0.05 μL of Kapa 2G Robust Hotstart DNA polymerase (kk5517, KAPA Biosystems), 0.2 μL of reverse transcriptase (GoScript, A5004 Promega), 0.04 uL of 100 mM dNTPs (10297-117, Life Technologies), 0.25 uL of DMSO, 0.13 uL of SYBR Green (1/375 dilution, S7563 Invitrogen), 0.5 μL each of respective forward and reverse primers (2.5 μM) and 1.34 μL of RNAase free water. In indicated experiments, for PCR reaction of 5 μL volume the composition was the same as RT-PCR reaction except 0.2 μL of RNAase free water was added instead of reverse transcriptase. Real time RT-PCR targeting rRNA or tmRNA was performed by reverse transcription at 50° C. for 5 min, inactivation of reverse transcriptase and activation of hotstart DNA polymerase at 97° C. for 5 min, followed by 35 to 40 cycles of cDNA amplification (denaturation at 95° C. for 5 sec, annealing at 63° for 7 sec, and extension at 72° C. for 10 sec) in Eco Real Time PCR system (Illumina) using a double stranded DNA binding fluorescent dye, SYBR Green. […]
As it is observed, the exposure of microbial cells to the antibiotic norfloxacin reduced the quantity of target mRNA by approximately 8-16 times (corresponding to 3-4 PCR cycles).
In general terms: Quantitative PCR measures a nucleic acid by following its amplification.

Take `CCn1cc(C(=O)O)c(=O)c2cc(F)c(N3CCNCC3)cc21` [norfloxacin]: the “rRNA and tmRNA RT-PCR signal in response to the antibiotic compared to without antibiotic (Non-treated) culture” value in the test on Klebsiella pneumoniae was “reduction of rRNA and tmRNA”. For the same molecule, in the test on E. coli, the “reduction of target mRNA (DnaK) signal in PCR cycles after exposure to the antibiotic” value was 3-4 PCR cycles and the “reduction of the quantity of target mRNA (DnaK) after exposure to the antibiotic” value is recorded as 8-16 times.
